# Source: US6355799B1, “Substituted benzene compounds, process for their preparation, and herbicidal and defoliant compositions containing them” (ISK Americas Incorporated, priority 1997, dated 2002)
# Key:
# Format in all cases: in vivo
# [1] = system: redroot pigweed (Amaranthus retroflexus, AMARE); test: Post-emerge test, greenhouse herbicide activity screening; conditions: post-emerge, 14 days after application
# How it was run: (§1)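 Visual ratings on a 0-100 scale (0 no damage, 100 all plants dead) were taken at 14 days after treatment. Rates of 15-1000 g ai/ha in acetone, 187 l/ha, were sprayed onto soil one day after planting (pre-emerge) or onto 2-3 leaf plants with 0.25% v/v surfactant (post-emerge).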
# [2] = system: green foxtail (Setaria viridis, SETVI); test: as above; conditions: post-emerge, 14 days after application, rating scale 0-100
# How it was run: as §1
# [3] = system: ivyleaf morningglory (Ipomoea hederacea, IPOHE); test: as above; conditions: post-emerge, 14 days after application, rating scale 0-100
# How it was run: as §1
# [4] = system: barnyardgrass (Echinochloa crus-galli, ECHCG); test: as above; conditions: post-emerge, 14 days after application, rating scale 0-100
# How it was run: as §1
# [5] = system: large crabgrass (Digitaria sanguinalis, DIGSA); test: as above; conditions: post-emerge, 14 days after application, rating scale 0-100
# How it was run: as §1
# [6] = system: velvetleaf (Abutilon theophrasti, ABUTH); test: as above; conditions: post-emerge, 14 days after application, rating scale 0-100
# How it was run: as §1
# [7] = system: johnsongrass (Sorghum halepense, SORHA); test: as above; conditions: post-emerge, 14 days after application, rating scale 0-100
# How it was run: as §1
# [8] = system: lambsquarters (Chenopodium album, CHEAL); test: as above; conditions: post-emerge, 14 days after application, rating scale 0-100
# How it was run: as §1
# [9] = system: sicklepod (Cassia obtusifolia, CASOB); test: as above; conditions: post-emerge, 14 days after application, rating scale 0-100
# How it was run: as §1
# [10] = system: green foxtail (Setaria viridis, SETVI); test: Pre-emerge test, greenhouse herbicide activity screening; conditions: for phytotoxicity rating SETVI: pre-emerge, 14 days after application, rating scale 0-100; for Pre-emerge Herbicidal Activity, phytotoxicity rating (0-100), SETVI: rated 14 days after application, 0 = no damage, 100 = complete death
# How it was run: (§2)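 Sandy loam pots; pre-emerge: sown 1 d pre-spray, surface-watered after, then bottom-watered. Post-emerge: sown 8–21 d before, 2–3 leaf stage, + 0.25% v/v NIS, bottom-watered. Acetone, 187 l/ha track spray, 15–1000 g ai/ha. 0–100 injury score, day 14.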
# [11] = system: ivyleaf morningglory (Ipomoea hederacea, IPOHE); test: as above; conditions: for phytotoxicity rating IPOHE: pre-emerge, 14 days after application, rating scale 0-100; for Pre-emerge Herbicidal Activity, phytotoxicity rating (0-100), IPOHE: rated 14 days after application, 0 = no damage, 100 = complete death
# How it was run: as §2
# [12] = system: barnyardgrass (Echinochloa crus-galli, ECHCG); test: as above; conditions: for phytotoxicity rating ECHCG: pre-emerge, 14 days after application, rating scale 0-100; for Pre-emerge Herbicidal Activity, phytotoxicity rating (0-100), ECHCG: rated 14 days after application, 0 = no damage, 100 = complete death
# How it was run: as §2
# [13] = system: large crabgrass (Digitaria sanguinalis, DIGSA); test: as above; conditions: for phytotoxicity rating DIGSA: pre-emerge, 14 days after application, rating scale 0-100; for Pre-emerge Herbicidal Activity, phytotoxicity rating (0-100), DIGSA: rated 14 days after application, 0 = no damage, 100 = complete death
# How it was run: as §2
# [14] = system: velvetleaf (Abutilon theophrasti, ABUTH); test: as above; conditions: for phytotoxicity rating ABUTH: pre-emerge, 14 days after application, rating scale 0-100; for Pre-emerge Herbicidal Activity, phytotoxicity rating (0-100), ABUTH: rated 14 days after application, 0 = no damage, 100 = complete death
# How it was run: as §2
# [15] = system: johnsongrass (Sorghum halepense, SORHA); test: as above; conditions: for phytotoxicity rating SORHA: pre-emerge, 14 days after application, rating scale 0-100; for Pre-emerge Herbicidal Activity, phytotoxicity rating (0-100), SORHA: rated 14 days after application, 0 = no damage, 100 = complete death
# How it was run: as §2
# [16] = system: lambsquarters (Chenopodium album, CHEAL); test: as above; conditions: for phytotoxicity rating CHEAL: pre-emerge, 14 days after application, rating scale 0-100; for Pre-emerge Herbicidal Activity, phytotoxicity rating (0-100), CHEAL: rated 14 days after application, 0 = no damage, 100 = complete death
# How it was run: as §2
# [17] = system: sicklepod (Cassia obtusifolia, CASOB); test: as above; conditions: for phytotoxicity rating CASOB: pre-emerge, 14 days after application, rating scale 0-100; for Pre-emerge Herbicidal Activity, phytotoxicity rating (0-100), CASOB: rated 14 days after application, 0 = no damage, 100 = complete death
# How it was run: as §2
# [18] = system: upland rice (Oryza sp., var. Tebonnet, RICE); test: Pre-emerge test, crop safety; conditions: for phytotoxicity rating RICE: pre-emerge, 14 days after application, rating scale 0-100; for Pre-emerge phytotoxicity rating (0-100), crop damage, RICE: rated 14 days after application, 0 = no damage, 100 = complete death
# How it was run: (§3)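 Compounds in acetone were track-sprayed at 15-1000 g ai/ha (187 l/ha) on sandy loam pots: pre-emerge one day after seeding, post-emerge at 2-3 leaf stage with 0.25% v/v non-ionic surfactant. Phytotoxicity was rated 14 days later on a 0 (no damage) to 100 (complete death) scale.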
# [19] = system: field corn (Zea mays L., var. Dekalb 535, CORN); test: Pre-emerge test, crop safety; conditions: for phytotoxicity rating CORN: pre-emerge, 14 days after application, rating scale 0-100; for Pre-emerge phytotoxicity rating (0-100), crop damage, CORN: rated 14 days after application, 0 = no damage, 100 = complete death
# How it was run: as §3
# [20] = system: redroot pigweed (Amaranthus retroflexus, AMARE); test: Pre-emerge test, greenhouse herbicide activity screening; conditions: for phytotoxicity rating AMARE: pre-emerge, 14 days after application, rating scale 0-100; for Pre-emerge Herbicidal Activity, phytotoxicity rating (0-100), AMARE: rated 14 days after application, 0 = no damage, 100 = complete death
# How it was run: as §2
# [21] = system: upland rice (Oryza sp., var. Tebonnet, RICE); test: Post-emerge test, crop safety; conditions: post-emerge, 14 days after application, rating scale 0-100
# How it was run: as §2
# [22] = system: field corn (Zea mays L., var. Dekalb 535, CORN); test: Post-emerge test, crop safety; conditions: post-emerge, 14 days after application, rating scale 0-100
# How it was run: as §2
# [23] = 250 g ai/ha, rating scale 0-100
smiles,measurement,setting,value
"COc1c(Cl)cc(F)c(-n2c(=O)cc(C(F)(F)F)n(C)c2=O)c1SC [Compound 17-1, 3-(4-chloro-6-fluoro-3-methoxy-2-thiomethylphenyl)l-methyl-6-trifluoromethyl-2,4(1H, 3H)-pyrimidinedione]",Post-emerge Herbicidal Activity AMARE (phytotoxicity rating),"[1]; 63 g ai/ha, rating scale 0-100 (0 no damage, 100 complete death)",10
same,Post-emerge Herbicidal Activity AMARE (phytotoxicity rating),[1]; [23],30
same,Post-emerge Herbicidal Activity SETVI (phytotoxicity rating),[2]; 63 g ai/ha,0
same,Post-emerge Herbicidal Activity SETVI (phytotoxicity rating),[2]; 250 g ai/ha,0
same,Post-emerge Herbicidal Activity IPOHE (phytotoxicity rating),[3]; 63 g ai/ha,80
same,Post-emerge Herbicidal Activity IPOHE (phytotoxicity rating),[3]; 250 g ai/ha,80
same,Post-emerge Herbicidal Activity ECHCG (phytotoxicity rating),[4]; 63 g ai/ha,0
same,Post-emerge Herbicidal Activity ECHCG (phytotoxicity rating),[4]; 250 g ai/ha,0
same,Post-emerge Herbicidal Activity DIGSA (phytotoxicity rating),[5]; 63 g ai/ha,0
same,Post-emerge Herbicidal Activity DIGSA (phytotoxicity rating),[5]; 250 g ai/ha,0
same,Post-emerge Herbicidal Activity ABUTH (phytotoxicity rating),[6]; 63 g ai/ha,70
same,Post-emerge Herbicidal Activity ABUTH (phytotoxicity rating),[6]; 250 g ai/ha,70
same,Post-emerge Herbicidal Activity SORHA (phytotoxicity rating),[7]; 63 g ai/ha,0
same,Post-emerge Herbicidal Activity SORHA (phytotoxicity rating),[7]; 250 g ai/ha,0
same,Post-emerge Herbicidal Activity CHEAL (phytotoxicity rating),[8]; 63 g ai/ha,30
same,Post-emerge Herbicidal Activity CHEAL (phytotoxicity rating),[8]; 250 g ai/ha,60
same,Post-emerge Herbicidal Activity CASOB (phytotoxicity rating),[9]; 63 g ai/ha,20
same,Post-emerge Herbicidal Activity CASOB (phytotoxicity rating),[9]; 250 g ai/ha,10
same,phytotoxicity rating SETVI,[10]; 63 g ai/ha,50
same,phytotoxicity rating SETVI,[10]; 250 g ai/ha,80
same,phytotoxicity rating IPOHE,[11]; 63 g ai/ha,10
same,phytotoxicity rating IPOHE,[11]; 250 g ai/ha,70
same,phytotoxicity rating ECHCG,[12]; 63 g ai/ha,0
same,phytotoxicity rating ECHCG,[12]; 250 g ai/ha,70
same,phytotoxicity rating DIGSA,[13]; 63 g ai/ha,20
same,phytotoxicity rating DIGSA,[13]; 250 g ai/ha,80
same,phytotoxicity rating ABUTH,[14]; 63 g ai/ha,95
same,phytotoxicity rating ABUTH,[14]; 250 g ai/ha,100
same,phytotoxicity rating SORHA,[15]; 63 g ai/ha,0
same,phytotoxicity rating SORHA,[15]; 250 g ai/ha,60
same,phytotoxicity rating CHEAL,[16]; 63 g ai/ha,90
same,phytotoxicity rating CHEAL,[16]; 250 g ai/ha,100
same,phytotoxicity rating CASOB,[17]; 63 g ai/ha,0
same,phytotoxicity rating CASOB,[17]; 250 g ai/ha,80
same,phytotoxicity rating RICE,[18]; 63 g ai/ha,10
same,phytotoxicity rating RICE,[18]; 250 g ai/ha,30
same,phytotoxicity rating CORN,[19]; 63 g ai/ha,0
same,phytotoxicity rating CORN,[19]; 250 g ai/ha,10
same,phytotoxicity rating AMARE,[20]; 63 g ai/ha,30
same,phytotoxicity rating AMARE,[20]; 250 g ai/ha,90
same,Post-emerge Herbicidal Activity RICE (crop damage rating),[21]; 63 g ai/ha,0
same,Post-emerge Herbicidal Activity RICE (crop damage rating),[21]; 250 g ai/ha,0
same,Post-emerge Herbicidal Activity CORN (crop damage rating),[22]; 63 g ai/ha,0
same,Post-emerge Herbicidal Activity CORN (crop damage rating),[22]; 250 g ai/ha,5
COc1c(Cl)cc(F)c(-n2c(=O)cc(C(F)(F)F)n(C)c2=O)c1NC(=O)COCc1ccccc1 [2-89],phytotoxicity rating AMARE,"[1]; 63 g ai/ha, rating scale 0-100",70
same,phytotoxicity rating AMARE,[1]; [23],100
same,phytotoxicity rating SETVI,[2]; 63 g ai/ha,20
same,phytotoxicity rating SETVI,[2]; 250 g ai/ha,20
same,phytotoxicity rating IPOHE,[3]; 63 g ai/ha,90
same,phytotoxicity rating IPOHE,[3]; 250 g ai/ha,100
same,phytotoxicity rating ECHCG,[4]; 63 g ai/ha,0
same,phytotoxicity rating ECHCG,[4]; 250 g ai/ha,10
same,phytotoxicity rating DIGSA,[5]; 63 g ai/ha,0
same,phytotoxicity rating DIGSA,[5]; 250 g ai/ha,0
same,phytotoxicity rating ABUTH,[6]; 63 g ai/ha,100
same,phytotoxicity rating ABUTH,[6]; 250 g ai/ha,100
same,phytotoxicity rating SORHA,[7]; 63 g ai/ha,0
same,phytotoxicity rating SORHA,[7]; 250 g ai/ha,10
same,phytotoxicity rating CHEAL,[8]; 63 g ai/ha,60
same,phytotoxicity rating CHEAL,[8]; 250 g ai/ha,90
same,phytotoxicity rating CASOB,[9]; 63 g ai/ha,50
same,phytotoxicity rating CASOB,[9]; 250 g ai/ha,60
same,"Pre-emerge Herbicidal Activity, phytotoxicity rating (0-100), SETVI",[10]; 63 g ai/ha,100
same,"Pre-emerge Herbicidal Activity, phytotoxicity rating (0-100), SETVI",[10]; 250 g ai/ha,100
same,"Pre-emerge Herbicidal Activity, phytotoxicity rating (0-100), IPOHE",[11]; 63 g ai/ha,95
same,"Pre-emerge Herbicidal Activity, phytotoxicity rating (0-100), IPOHE",[11]; 250 g ai/ha,100
same,"Pre-emerge Herbicidal Activity, phytotoxicity rating (0-100), ECHCG",[12]; 63 g ai/ha,50
same,"Pre-emerge Herbicidal Activity, phytotoxicity rating (0-100), ECHCG",[12]; 250 g ai/ha,90
same,"Pre-emerge Herbicidal Activity, phytotoxicity rating (0-100), DIGSA",[13]; 63 g ai/ha,99
same,"Pre-emerge Herbicidal Activity, phytotoxicity rating (0-100), DIGSA",[13]; 250 g ai/ha,100
same,"Pre-emerge Herbicidal Activity, phytotoxicity rating (0-100), ABUTH",[14]; 63 g ai/ha,100
same,"Pre-emerge Herbicidal Activity, phytotoxicity rating (0-100), ABUTH",[14]; 250 g ai/ha,100
same,"Pre-emerge Herbicidal Activity, phytotoxicity rating (0-100), SORHA",[15]; 63 g ai/ha,60
same,"Pre-emerge Herbicidal Activity, phytotoxicity rating (0-100), SORHA",[15]; 250 g ai/ha,90
same,"Pre-emerge Herbicidal Activity, phytotoxicity rating (0-100), CHEAL",[16]; 63 g ai/ha,100
same,"Pre-emerge Herbicidal Activity, phytotoxicity rating (0-100), CHEAL",[16]; 250 g ai/ha,100
same,"Pre-emerge Herbicidal Activity, phytotoxicity rating (0-100), CASOB",[17]; 63 g ai/ha,95
same,"Pre-emerge Herbicidal Activity, phytotoxicity rating (0-100), CASOB",[17]; 250 g ai/ha,100
same,"Pre-emerge phytotoxicity rating (0-100), crop damage, RICE",[18]; 63 g ai/ha,40
same,"Pre-emerge phytotoxicity rating (0-100), crop damage, RICE",[18]; 250 g ai/ha,90
same,"Pre-emerge phytotoxicity rating (0-100), crop damage, CORN",[19]; 63 g ai/ha,10
same,"Pre-emerge phytotoxicity rating (0-100), crop damage, CORN",[19]; 250 g ai/ha,30
same,"Pre-emerge Herbicidal Activity, phytotoxicity rating (0-100), AMARE",[20]; 63 g ai/ha,100
same,"Pre-emerge Herbicidal Activity, phytotoxicity rating (0-100), AMARE",[20]; 250 g ai/ha,100
same,phytotoxicity rating RICE,[21]; 63 g ai/ha,60
same,phytotoxicity rating RICE,[21]; 250 g ai/ha,70
same,phytotoxicity rating CORN,[22]; 63 g ai/ha,0
same,phytotoxicity rating CORN,[22]; 250 g ai/ha,0
